This note sets out measurements from patent US9670242B2, “Tetracyclic anthraquinone derivatives” (Tianjin Hemay Bio-Tech Co., Ltd, priority 2012, dated 2017).

The structures appear in SMILES notation.

The nature of this series: Solubility of the compound in water. It counts as physicochemical.
As to `CC(=O)O.COc1cccc2c1C(=O)c1c(O)c3c(c(O)c1C2=O)CC(O)(C(=O)COC(=O)CCC(=O)NCCc1cccnc1)CC3O[C@H]1C[C@H](n2cccc2)[C@H](O)[C@H](C)O1` (stereo partly shown) [Example 85], the “solubility of the compound in water” value is given as “more than 11 mg/ml”.

On to `CC(=O)O.COc1cccc2c1C(=O)c1c(O)c3c(c(O)c1C2=O)CC(O)(C(=O)COC(=O)CCC(=O)NCc1ccncc1)CC3O[C@H]1C[C@H](n2cccc2)[C@H](O)[C@H](C)O1` (stereo partly shown) [Example 82], for which the “solubility of the compound in water” value is recorded as “more than 6 mg/ml”. As for `CC(=O)O.CCN1CCN(C(=O)CCC(=O)OCC(=O)C2(O)Cc3c(O)c4c(c(O)c3C(O[C@H]3C[C@H](n5cccc5)[C@H](O)[C@H](C)O3)C2)C(=O)c2c(OC)cccc2C4=O)CC1` (stereo partly drawn) [Example 80, 10-((3′-(pyrrol-1-yl)-2′,3′,6′-trideoxy-alphal-l-lyxo-hexylpyranyl)oxy)-7,8,9,10-tetrahydro-6,8,11-trihydroxy-13-oxo-14-(4-(4-ethylpiperazin-1-yl)-4-oxo-butyrato)-1-methoxy-5,12-naphthalenedione acetate], the entry is “more than 11 mg/ml”; as for `CC(=O)O.COc1cccc2c1C(=O)c1c(O)c3c(c(O)c1C2=O)CC(O)(C(=O)COC(=O)CCC(=O)N1CCN(CCCN(C)C)CC1)CC3O[C@H]1C[C@H](n2cccc2)[C@H](O)[C@H](C)O1` (stereo partly drawn) [Example 87, 10-((3′-(pyrrol-1-yl)-2′,3′,6′-trideoxy-alphal-l-lyxo-hexylpyranyl)oxy)-7,8,9,10-tetrahydro-6,8,11-trihydroxy-13-oxo-14-(4-(4-(3-(dimethylamino)propyl)piperazin-1-yl)-4-oxo-butyrato)-1-methoxy-5,12-naphthalenedione acetate], “more than 16 mg/ml”; as for `CC(=O)O.COc1cccc2c1C(=O)c1c(O)c3c(c(O)c1C2=O)CC(O)(C(=O)COC(=O)CCC(=O)NN1CCN(C)CC1)CC3O[C@H]1C[C@H](n2cccc2)[C@H](O)[C@H](C)O1` (stereo partly shown) [Example 79], “more than 5 mg/ml”. The same measure for `CC(=O)O.COc1cccc2c1C(=O)c1c(O)c3c(c(O)c1C2=O)CC(O)(C(=O)COC(=O)CCC(=O)NCCCN1CCOCC1)CC3O[C@H]1C[C@H](n2cccc2)[C@H](O)[C@H](C)O1` (stereo partly drawn) [Example 78, 10-((3′-(pyrrol-1-yl)-2′,3′,6′-trideoxy-alphal-l-lyxo-hexylpyranyl)oxy)-7,8,9,10-tetrahydro-6,8,11-trihydroxy-13-oxo-14-(4-((3-(morpholin-1-yl)propyl)amino)-4-oxo-butyrato)-1-methoxy-5,12-naphthalenedione acetate]: “more than 22 mg/ml”. As for `CC(=O)O.COc1cccc2c1C(=O)c1c(O)c3c(c(O)c1C2=O)CC(O)(C(=O)COC(=O)CCC(=O)NCc1cccnc1)CC3O[C@H]1C[C@H](n2cccc2)[C@H](O)[C@H](C)O1` (stereo partly shown) [Example 83], the entry is “more than 1 mg/ml”.
